Test results: patent US11325889B2, “Substituted 3-((3-aminophenyl)amino)piperidine-2,6-dione compounds, compositions thereof, and methods of treatment therewith” (Celgene Corporation, priority 2018, dated 2022)

Biological target: T1, AR protein in VCaP cells (Homo sapiens, UniProt P10275)
T1 construct: endogenous in cells; host or cells: VCaP cells
T1 sequence (P10275 1-920): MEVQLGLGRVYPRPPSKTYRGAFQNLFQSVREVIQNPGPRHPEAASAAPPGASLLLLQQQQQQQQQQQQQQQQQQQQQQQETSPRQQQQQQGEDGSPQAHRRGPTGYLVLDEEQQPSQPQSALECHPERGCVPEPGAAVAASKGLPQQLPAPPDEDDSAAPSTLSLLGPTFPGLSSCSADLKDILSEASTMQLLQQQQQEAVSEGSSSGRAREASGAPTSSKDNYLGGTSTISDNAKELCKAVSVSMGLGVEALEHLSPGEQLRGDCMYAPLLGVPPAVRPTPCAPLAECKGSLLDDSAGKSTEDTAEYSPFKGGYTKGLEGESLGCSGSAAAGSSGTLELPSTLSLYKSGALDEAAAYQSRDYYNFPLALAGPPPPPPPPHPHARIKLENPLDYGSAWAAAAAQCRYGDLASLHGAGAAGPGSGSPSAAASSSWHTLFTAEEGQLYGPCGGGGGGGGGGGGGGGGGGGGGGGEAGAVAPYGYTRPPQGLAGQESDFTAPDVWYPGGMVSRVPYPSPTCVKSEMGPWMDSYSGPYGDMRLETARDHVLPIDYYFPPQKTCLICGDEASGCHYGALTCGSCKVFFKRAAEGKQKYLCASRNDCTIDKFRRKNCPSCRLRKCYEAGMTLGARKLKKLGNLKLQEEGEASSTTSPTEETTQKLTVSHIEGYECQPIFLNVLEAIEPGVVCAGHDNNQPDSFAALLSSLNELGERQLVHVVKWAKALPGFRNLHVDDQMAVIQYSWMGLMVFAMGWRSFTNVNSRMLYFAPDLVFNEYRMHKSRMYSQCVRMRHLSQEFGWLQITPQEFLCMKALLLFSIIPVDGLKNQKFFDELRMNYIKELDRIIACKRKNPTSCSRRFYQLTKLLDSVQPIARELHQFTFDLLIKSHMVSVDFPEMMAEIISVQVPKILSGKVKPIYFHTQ
Experiment: VCAP AR Degradation Assay (AR ELISA, 24 h)
Format: cell-based
Conditions: for Y (lowest measured AR level normalized to DMSO control): AR degradation efficiency; for DC50: concentration of compound when AR level = 50% of DMSO control, read-out: DC50
Outline: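 VCaP cells in DMEM with 8% FBS exposed for 24 h at 37° C to a 10-point, 1:3 series (final top concentration […]; 0.1% DMSO control). Lysate AR measured by sandwich ELISA and normalized to DMSO as percent of control. DC50, EC50 and lowest AR level (Y) from four-parameter logistic fit.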

| Structure (SMILES) | Y (lowest measured AR level normalized to DMSO control) | DC50 [nM] |
| --- | --- | --- |
| CCc1cc(N2C(=S)N(c3ccc(C#N)c(C(F)(F)F)c3)C(=O)C2(C)C)ccc1OCC[C@H]1CCN(CC(=O)Nc2cccc(NC3CCC(=O)NC3=O)c2)[C@H](C)C1 (stereo partly drawn) [Cmpd 70, 2-((2R,4S)-4-(2-(4-(3-(4-cyano-3-(trifluoromethyl)phenyl)-5,5-dimethyl-4-oxo-2-thioxoimidazolidin-1-yl)-2-ethylphenoxy)ethyl)-2-methylpiperidin-1-yl)-N-(3-(2,6-dioxopiperidin-3-ylamino)phenyl)acetamide] | * (0<Y<=25%) | < 100 |
| CCc1cc(N2C(=S)N(c3ccc(C#N)c(C(F)(F)F)c3)C(=O)C2(C)C)ccc1OCC[C@@H]1CCN(CC(=O)Nc2cccc(NC3CCC(=O)NC3=O)c2)[C@H](C)C1 (stereo partly drawn) [Cmpd 71, 2-((2R,4R)-4-(2-(4-(3-(4-cyano-3-(trifluoromethyl)phenyl)-5,5-dimethyl-4-oxo-2-thioxoimidazolidin-1-yl)-2-ethylphenoxy)ethyl)-2-methylpiperidin-1-yl)-N-(3-(2,6-dioxopiperidin-3-ylamino)phenyl)acetamide] | * (0<Y<=25%) | < 100 |
| CCc1cc(N2C(=S)N(c3ccc(C#N)c(C(F)(F)F)c3)C(=O)C23CCC3)ccc1OCCC1CCN([C@@H](C)C(=O)Nc2cc(NC3CCC(=O)NC3=O)ccc2F)CC1 (stereo partly drawn) [Cmpd 74, (2S)-2-(4-(2-(4-(7-(4-cyano-3-(trifluoromethyl)phenyl)-8-oxo-6-thioxo-5,7-diazaspiro[3.4]octan-5-yl)-2-ethylphenoxy)ethyl)piperidin-1-yl)-N-(5-(2,6-dioxopiperidin-3-ylamino)-2-fluorophenyl)propanamide] | ** (25%<Y<=35%) | 100 to 500 |
| CCc1cc(N2C(=S)N(c3ccc(C#N)c(C(F)(F)F)c3)C(=O)C23CCC3)ccc1OCCC1CCN([C@H](C)C(=O)Nc2cc(NC3CCC(=O)NC3=O)ccc2F)CC1 (stereo partly drawn) [Cmpd 75, (2R)-2-(4-(2-(4-(7-(4-cyano-3-(trifluoromethyl)phenyl)-8-oxo-6-thioxo-5,7-diazaspiro[3.4]octan-5-yl)-2-ethylphenoxy)ethyl)piperidin-1-yl)-N-(5-(2,6-dioxopiperidin-3-ylamino)-2-fluorophenyl)propanamide] | ** (25%<Y<=35%) | 100 to 500 |
| CCc1cc(N2C(=S)N(c3cnc(C#N)c(C(F)(F)F)c3)C(=O)C2(C)C)ccc1OCC1CCN(CC(=O)Nc2cc(Cl)cc(NC3CCC(=O)NC3=O)c2)CC1 (stereo not drawn) [Cmpd 81, N-(3-chloro-5-(2,6-dioxopiperidin-3-ylamino)phenyl)-2-(4-((4-(3-(6-cyano-5-(trifluoromethyl)pyridin-3-yl)-5,5-dimethyl-4-oxo-2-thioxoimidazolidin-1-yl)-2-ethylphenoxy)methyl)piperidin-1-yl)acetamide] | ** (25%<Y<=35%) | < 100 |
| CCc1cc(N2C(=S)N(c3ccc(C#N)c(C(F)(F)F)c3)C(=O)C2(C)C)ccc1OCC[C@H]1CCN(CC(=O)Nc2cc(NC3CCC(=O)NC3=O)ccc2F)[C@H](C)C1 (stereo partly drawn) [Cmpd 82, 2-((2R,4S)-4-(2-(4-(3-(4-cyano-3-(trifluoromethyl)phenyl)-5,5-dimethyl-4-oxo-2-thioxoimidazolidin-1-yl)-2-ethylphenoxy)ethyl)-2-methylpiperidin-1-yl)-N-(5-(2,6-dioxopiperidin-3-ylamino)-2-fluorophenyl)acetamide] | ** (25%<Y<=35%) | 100 to 500 |

Second part, the compound after the results:

| Y (lowest measured AR level normalized to DMSO control) | DC50 [nM] | Structure (SMILES) |
| --- | --- | --- |
| * (0<Y<=25%) | < 100 | C[C@H](C(=O)Nc1cccc(NC2CCC(=O)NC2=O)c1)N1CCC(CCOc2ccc(N3C(=S)N(c4cnc(C#N)c(C(F)(F)F)c4)C(=O)C3(C)C)cc2CCF)CC1 (stereo partly drawn) [Cmpd 72, (2R)-2-(4-(2-(4-(3-(6-cyano-5-(trifluoromethyl)pyridin-3-yl)-5,5-dimethyl-4-oxo-2-thioxoimidazolidin-1-yl)-2-(2-fluoroethyl)phenoxy)ethyl)piperidin-1-yl)-N-(3-(2,6-dioxopiperidin-3-ylamino)phenyl)propanamide] |
| * (0<Y<=25%) | < 100 | C[C@@H](C(=O)Nc1cccc(NC2CCC(=O)NC2=O)c1)N1CCC(CCOc2ccc(N3C(=S)N(c4cnc(C#N)c(C(F)(F)F)c4)C(=O)C3(C)C)cc2CCF)CC1 (stereo partly drawn) [Cmpd 73, (2S)-2-(4-(2-(4-(3-(6-cyano-5-(trifluoromethyl)pyridin-3-yl)-5,5-dimethyl-4-oxo-2-thioxoimidazolidin-1-yl)-2-(2-fluoroethyl)phenoxy)ethyl)piperidin-1-yl)-N-(3-(2,6-dioxopiperidin-3-ylamino)phenyl)propanamide] |
| * (0<Y<=25%) | < 100 | CCc1cc(N2C(=S)N(c3cnc(C#N)c(C(F)(F)F)c3)C(=O)C2(C)C)ccc1OCC[C@H]1CCN(CC(=O)Nc2cccc(NC3CCC(=O)NC3=O)c2)[C@H](C)C1 (stereo partly drawn) [Cmpd 76, 2-((2R,4S)-4-(2-(4-(3-(6-cyano-5-(trifluoromethyl)pyridin-3-yl)-5,5-dimethyl-4-oxo-2-thioxoimidazolidin-1-yl)-2-ethylphenoxy)ethyl)-2-methylpiperidin-1-yl)-N-(3-(2,6-dioxopiperidin-3-ylamino)phenyl)acetamide] |
| * (0<Y<=25%) | 100 to 500 | CCc1cc(N2C(=S)N(c3cnc(C#N)c(C(F)(F)F)c3)C(=O)C2(C)C)ccc1OCC[C@H]1CCN(CC(=O)Nc2cc(NC3CCC(=O)NC3=O)ccc2F)[C@H](C)C1 (stereo partly drawn) [Cmpd 77, 2-((2R,4S)-4-(2-(4-(3-(6-cyano-5-(trifluoromethyl)pyridin-3-yl)-5,5-dimethyl-4-oxo-2-thioxoimidazolidin-1-yl)-2-ethylphenoxy)ethyl)-2-methylpiperidin-1-yl)-N-(5-(2,6-dioxopiperidin-3-ylamino)-2-fluorophenyl)acetamide] |
| * (0<Y<=25%) | < 100 | CCc1cc(N2C(=S)N(c3cnc(C#N)c(C(F)(F)F)c3)C(=O)C2(C)C)ccc1OCC[C@@H]1CCN(CC(=O)Nc2cccc(NC3CCC(=O)NC3=O)c2)[C@H](C)C1 (stereo partly drawn) [Cmpd 78, 2-((2R,4R)-4-(2-(4-(3-(6-cyano-5-(trifluoromethyl)pyridin-3-yl)-5,5-dimethyl-4-oxo-2-thioxoimidazolidin-1-yl)-2-ethylphenoxy)ethyl)-2-methylpiperidin-1-yl)-N-(3-(2,6-dioxopiperidin-3-ylamino)phenyl)acetamide] |
| ** (25%<Y<=35%) | 100 to 500 | CCc1cc(N2C(=S)N(c3cnc(C#N)c(C(F)(F)F)c3)C(=O)C2(C)C)ccc1OCC[C@@H]1CCN(CC(=O)Nc2cc(NC3CCC(=O)NC3=O)ccc2F)[C@H](C)C1 (stereo partly drawn) [Cmpd 79, 2-((2R,4R)-4-(2-(4-(3-(6-cyano-5-(trifluoromethyl)pyridin-3-yl)-5,5-dimethyl-4-oxo-2-thioxoimidazolidin-1-yl)-2-ethylphenoxy)ethyl)-2-methylpiperidin-1-yl)-N-(5-(2,6-dioxopiperidin-3-ylamino)-2-fluorophenyl)acetamide] |
| ** (25%<Y<=35%) | < 100 | CCc1cc(N2C(=S)N(c3cnc(C#N)c(C(F)(F)F)c3)C(=O)C2(C)C)ccc1OCC1CCN(CC(=O)Nc2cccc(NC3CCC(=O)NC3=O)c2)CC1 (stereo not drawn) [Cmpd 80, 2-(4-((4-(3-(6-cyano-5-(trifluoromethyl)pyridin-3-yl)-5,5-dimethyl-4-oxo-2-thioxoimidazolidin-1-yl)-2-ethylphenoxy)methyl)piperidin-1-yl)-N-(3-(2,6-dioxopiperidin-3-ylamino)phenyl)acetamide] |
| * (0<Y<=25%) | < 100 | CCc1cc(N2C(=S)N(c3cnc(C#N)c(C(F)(F)F)c3)C(=O)C23CCC3)ccc1OCCC1CCN([C@@H](C)C(=O)Nc2cccc(NC3CCC(=O)NC3=O)c2)CC1 (stereo partly drawn) [Cmpd 83, (2S)-2-(4-(2-(4-(7-(6-cyano-5-(trifluoromethyl)pyridin-3-yl)-8-oxo-6-thioxo-5,7-diazaspiro[3.4]octan-5-yl)-2-ethylphenoxy)ethyl)piperidin-1-yl)-N-(3-(2,6-dioxopiperidin-3-ylamino)phenyl)propanamide] |
| * (0<Y<=25%) | < 100 | CCc1cc(N2C(=S)N(c3cnc(C#N)c(C(F)(F)F)c3)C(=O)C23CCC3)ccc1OCCC1CCN([C@H](C)C(=O)Nc2cccc(NC3CCC(=O)NC3=O)c2)CC1 (stereo partly drawn) [Cmpd 84, (2R)-2-(4-(2-(4-(7-(6-cyano-5-(trifluoromethyl)pyridin-3-yl)-8-oxo-6-thioxo-5,7-diazaspiro[3.4]octan-5-yl)-2-ethylphenoxy)ethyl)piperidin-1-yl)-N-(3-(2,6-dioxopiperidin-3-ylamino)phenyl)propanamide] |
